Patent publication US20110107445A1, “Efficient Insertion of DNA Into Embryonic Stem Cells” (ITI Scotland Limited, priority 2008, published 2011)

What was measured:
CYP3A4 [1] = format: in vitro ADME, mouse
Description: FIG. 24. 7-BQ oxidation by liver (A) and intestinal (B) microsomes from C57BL/6J, hCYP3A4/3A7_Cyp3a KO, hCYP3A4_Cyp3a KO and Cyp3a KO mice Data generated according to CXR approved Laboratory Method Sheet Fluor-0005. Apart from bars for untreated transgenic/knock-out mice, which represent a single measurement, data are mean±SD (n=3 for C57BL/6J microsomes; n=2 for microsomes from PCN treated transgenic strains and human liver microsomes (HLM)). Activities of samples from treated hCYP3A4/3A7_Cyp3a KO and hCYP3A4_Cyp3a KO mice were compared to that from Cyp3a KO line with an unpaired t test (two tailed P values). 3 homozygous male mice per strain were used throughout. Two mice were administered with 5-Pregnen-3β-ol-20-one-16α-carbonitrile (PCN) (100 mg/kg/2 daily doses/IP) and one mouse was given the vehicle (corn oil). […] Wild type (WT) and Cyp3a KO animals were included as controls (n=3 for WT, pooled; n=1-2 for Cyp3a KO). Animals were sacrificed 24 hrs post final dose. Liver and duodenal microsomes were analysed for CYP3A4 expression and catalytic activity.

CYP3A4 [2] = biological target: T1, CYP3A4 (Homo sapiens, UniProt P08684); assay: In vitro oxidation of 7-BQ by pooled human liver microsomes; format: in vitro ADME
T1 construct: tissue Gentest 452172; host or cells: pooled (male) human liver microsomes
Description: FIG. 24. 7-BQ oxidation by liver (A) and intestinal (B) microsomes from C57BL/6J, hCYP3A4/3A7_Cyp3a KO, hCYP3A4_Cyp3a KO and Cyp3a KO mice Data generated according to CXR approved Laboratory Method Sheet Fluor-0005. Apart from bars for untreated transgenic/knock-out mice, which represent a single measurement, data are mean±SD (n=3 for C57BL/6J microsomes; n=2 for microsomes from PCN treated transgenic strains and human liver microsomes (HLM)). Activities of samples from treated hCYP3A4/3A7_Cyp3a KO and hCYP3A4_Cyp3a KO mice were compared to that from Cyp3a KO line with an unpaired t test (two tailed P values).

CYP3A4 [3] = assay: In vitro DBF oxidation by mouse liver and intestinal microsomes; format: in vitro ADME
Description: The total reaction volume was 1 mL. Fluorescein fluorescence was recorded using an F-4500 fluorescence spectrophotometer (Hitachi), excitation 485 nm and emission 538 nm. Fluorescein standard (10 μL, 25 μM) was injected into the reaction cuvette approximately 150 sec after the addition of NADPH. Slopes of the time course of the product accumulation were calculated using FL-Solution 2.0 (Hitachi).

CYP3A7 mRNA = conditions: mouse, in vivo
Description: 3 homozygous male mice per strain were used throughout. Two mice were administered with 5-Pregnen-3β-ol-20-one-16α-carbonitrile (PCN) (100 mg/kg/2 daily doses/IP) and one mouse was given the vehicle (corn oil). […] Wild type (WT) and Cyp3a KO animals were included as controls (n=3 for WT, pooled; n=1-2 for Cyp3a KO). Animals were sacrificed 24 hrs post final dose. Liver and duodenal microsomes were analysed for CYP3A4 expression and catalytic activity.
The mice received either corn oil (vehicle) or PCN 100 mg/kg, daily, for 2 days by intraperitoneal (IP) injection according to the experimental design described in Table 3. Dosing solutions were prepared at CXR Biosciences on the day of dosing by adding the vehicle (corn oil) to the requisite quantity of the PCN. The concentration of PCN was the concentration of supplied chemical, without any correction for purity. Excess dosing solution was stored at approximately 2-8° C. for possible future analysis. The volume of dosing solution was 10 mL/kg bodyweight. […]
For each target gene a reaction with the lowest dCt value was identified and that dCt value was subtracted from all other dCt, giving so-called ddCt (ddCt of the sample with the lowest dCt (endogenous reference) equals 0). Finally, the normalised relative amount of target gene (RQ) was calculated using the following formula: RQ=(2̂(−ddCt))*100 as shown in Table 9.

[4] = Body and liver weights of PCN treated mice; format: in vivo, mouse; conditions: for Liver per body weight, percentage of C57BL/6J from the same treatment group / Liver per body weight, percentage of control group of the same strain / Body weight / Liver per body weight / Liver weight: PCN 100 mg/kg daily for 2 days IP; for Body weight / Liver per body weight / Liver weight: mean ± SD
Description: (§1) The mice received either corn oil (vehicle) or PCN 100 mg/kg, daily, for 2 days by intraperitoneal (IP) injection according to the experimental design described in Table 3. Dosing solutions were prepared at CXR Biosciences on the day of dosing by adding the vehicle (corn oil) to the requisite quantity of the PCN. The concentration of PCN was the concentration of supplied chemical, without any correction for purity. Excess dosing solution was stored at approximately 2-8° C. for possible future analysis. The volume of dosing solution was 10 mL/kg bodyweight. Approximately 24 h after the second dose, the mice were euthanized using a rising concentration of CO2. Blood was collected at termination by cardiac puncture into lithium/heparin coacted tubes for plasma preparation.
The body weight of each mouse was recorded at the start of the study and immediately prior to termination. Bodyweights were recorded electronically or manually and records of these weights were stored in the study file.
In order to weigh the liver, the gall bladder was removed, and then the liver was removed and weighed. Two samples of liver (approximately 5 mm^3) were immediately flash frozen in a cryovial in liquid nitrogen then stored at approximately −70° C. for RNA analysis. The remaining liver was weighed and immediately used for subcellular fractionation to homogenates and microsomes.

[5] = Plasma clinical chemistry of PCN treated mice; format: in vivo, mouse; conditions: PCN treated hCYP3A4_Cyp3a KO mice compared to treated C57BL/6J mice
Description: as §1
Plasma samples were produced by removing red blood cells by centrifugation (2,000-3,000 rpm for 10 min at 8-10° C.). The supernatant (plasma) was stored on ice prior to clinical chemistry analysis. The pellet was discarded. Plasma samples from all animals were analysed for triglycerides, alanine aminotransferase, alkaline phosphatase, aspartate aminotransferase, albumin, cholesterol, bilirubin (total and direct), high and low density lipoproteins using the COBAS Integra 400+ (Roche), and the results are shown in FIGS. 19-21. […]

CYP3A4 [6] = assay: Western blot of liver and intestinal microsomes for CYP3A4 protein; format: in vivo, mouse
Description: as §1
The duodenum (first 10 cm from the base of the stomach) was removed and flushed with ice cold PBS containing a protease inhibitor cocktail (Roche). The first 2 cm was but and placed into a 2 ml cryvial containing 1 ml of TRIZOL (Sigma), flash frozen immediately, and then stored at approximately −70° C. for Taqman® analysis. The remainder of the duodenum was placed in a 1 ml cryovial and flash frozen immediately, and then stored at approximately −70°.
Liver microsomes were produced by preparing subcellular fractions from fresh livers. The livers were processed as described above to homogenates and microsomes. Aliquots from liver samples were stored at approximately −70° prior to analysis.
Frozen small intestines were homogenised in SET with protease cocktail inhibitor (Roche) and PMSF (mM) using a Polytron homogeniser. The homogenates were subjected to subcellular fractionation as described above. The microsomal fractions were stored at approximately −70° prior to analysis.
Liver microsomes from C57BL/6J, hCYP3A4/3A7_Cyp3a KO, hCYP3A4_Cyp3a KO and Cyp3a KO mice were analysed by Western blotting using an antibody specific to CYP3A4 and the results are shown in FIG. 22. There was a clear protein band for CYP3A4 on the Western blot of liver and intestinal microsomes from vehicle treated hCYP3A4/3A7_Cyp3a KO mice. […]

T1 sequence (P08684 whole entry): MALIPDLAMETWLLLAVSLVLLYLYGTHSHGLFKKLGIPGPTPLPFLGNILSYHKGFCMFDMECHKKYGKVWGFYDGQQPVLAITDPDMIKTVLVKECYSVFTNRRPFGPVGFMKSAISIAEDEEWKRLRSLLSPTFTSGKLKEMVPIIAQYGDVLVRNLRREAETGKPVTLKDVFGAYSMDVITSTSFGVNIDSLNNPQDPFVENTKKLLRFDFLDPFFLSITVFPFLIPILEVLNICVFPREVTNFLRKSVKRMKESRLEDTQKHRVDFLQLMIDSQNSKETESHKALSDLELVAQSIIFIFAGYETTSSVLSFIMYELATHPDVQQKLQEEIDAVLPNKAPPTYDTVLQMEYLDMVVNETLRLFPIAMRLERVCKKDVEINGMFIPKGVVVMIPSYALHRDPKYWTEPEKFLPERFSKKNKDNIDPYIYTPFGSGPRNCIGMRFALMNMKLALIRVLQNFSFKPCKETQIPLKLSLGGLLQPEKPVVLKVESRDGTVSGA

For c1ccc(COc2ccc3cccnc3c2)cc1 [7-BQ, 7-benzyloxyquinoline], the 7-BQ oxidation (CYP3A4 [1]) was “marked decrease”, the “7-BQ oxidation, recovery of activity” value (CYP3A4 [1]) was “small and not statistically significant” and the “7-BQ oxidation reaction rate” value (CYP3A4 [2]) was “low reaction rate”.
In the case of O=C(OCc1ccccc1)c1ccccc1-c1c2ccc(=O)cc-2oc2cc(OCc3ccccc3)ccc12 [DBF], the “DBF oxidation reaction rate” value (CYP3A4 [3]; hCYP3A4/3A7_Cyp3a KO microsomes compared to hCYP3A4_Cyp3a KO) is reported as “higher”, the DBF oxidation activity (CYP3A4 [3]; liver and intestinal samples from untreated humanised mice compared to Cyp3a KO) is reported as “little increase” and the “DBF oxidation activity, difference humanised vs Cyp3a KO” value (CYP3A4 [3]; samples from the PCN treated groups) is reported as “significantly more pronounced”.
For CC(=O)[C@H]1[C@H](C#N)C[C@H]2[C@@H]3CC=C4C[C@@H](O)CC[C@]4(C)[C@H]3CC[C@@]21C [PCN, 5-Pregnen-3β-ol-20-one-16α-carbonitrile], the “CYP3A7 mRNA (Q-PCR)” value (CYP3A7 mRNA) was “possible induction of CYP3A7”, the “7-BQ oxidation activity in response to PCN” value (CYP3A4 [1]) was “no increase in activity” and the “Liver per body weight, percentage of C57BL/6J from the same treatment group” value ([4]; C57BL/6J mice) was 100 ± 2.1 %. The “Liver per body weight, percentage of control group of the same strain” value ([4]; C57BL/6J mice) was 131 ± 2.7 %, the Body weight ([4]; C57BL/6J mice, n=3) was 19.30 ± 0.82 g and the “Liver per body weight” value ([4]; C57BL/6J mice, n=3) was 5.70 ± 0.12 %. For the same molecule, the Liver weight ([4]; C57BL/6J mice, n=3) was 1.10 ± 0.06 g, the liver/body weight ratio ([4]; C57BL/6J mice, PCN administration vs control) was “significantly (P<0.001) increased” and the “Liver per body weight, percentage of C57BL/6J from the same treatment group” value ([4]; Cyp3a KO mice) was 89 ± 4.4 %. The “Liver per body weight, percentage of control group of the same strain” value ([4]; Cyp3a KO mice) was 121 ± 6.0 %, the Body weight ([4]; Cyp3a KO mice, n=2) was 24.05 ± 1.77 g and the “Liver per body weight” value ([4]; Cyp3a KO mice, n=2) was 5.06 ± 0.25 %. For the same molecule, the Liver weight ([4]; Cyp3a KO mice, n=2) was 1.22 ± 0.15 g, the liver/body weight ratio ([4]; all treated transgenic mice vs treated wild type, significant (P<0.05) only in Cyp3a KO group) was “decreased liver/body weight ratio compared to the treated wild type” and the “Liver per body weight, percentage of C57BL/6J from the same treatment group” value ([4]; hCYP3A4/3A7_Cyp3a KO mice) was 97 ± 21.1 %. The “Liver per body weight, percentage of control group of the same strain” value ([4]; hCYP3A4/3A7_Cyp3a KO mice) was 120 ± 26.1 %, the Body weight ([4]; hCYP3A4/3A7_Cyp3a KO mice, n=2) was 19.15 ± 0.64 g and the “Liver per body weight” value ([4]; hCYP3A4/3A7_Cyp3a KO mice, n=2) was 5.53 ± 1.20%. For the same molecule, the Liver weight ([4]; hCYP3A4/3A7_Cyp3a KO mice, n=2) was 1.06 ± 0.27 g, the “Liver per body weight, percentage of C57BL/6J from the same treatment group” value ([4]; hCYP3A4_Cyp3a KO mice) was 93 ± 4.6 % and the “Liver per body weight, percentage of control group of the same strain” value ([4]; hCYP3A4_Cyp3a KO mice) was 113 ± 5.6 %. For the same molecule, the Body weight ([4]; hCYP3A4_Cyp3a KO mice, n=2) was 19.00 ± 0.71 g, the “Liver per body weight” value ([4]; hCYP3A4_Cyp3a KO mice, n=2) was 5.27 ± 0.26% and the Liver weight ([4]; hCYP3A4_Cyp3a KO mice, n=2) was 1.00 ± 0.09 g. For the same molecule, the “plasma level of cholesterol, low and high density lipoproteins, alanine transferase and alkaline phosphatase” value [5] was “statistically significant increases”, the “hepatic and intestinal CYP3A4 expression” value (CYP3A4 [6]; both humanised lines, treatment with PCN) was “strong induction” and the “intestinal CYP3A4 protein upregulation (Western blot)” value (CYP3A4 [6]; intestinal microsomes, humanised mice, compared with liver upregulation) was “less pronounced”. The “liver CYP3A4 protein (Western blot)” value (CYP3A4 [6]; liver microsomes, humanised mice, PCN 100 mg/kg/2 days/IP) was “strong upregulation”.
